Earlier results, collected in patent US5714342A, “Compositions for the detection of protease in biological samples and methods of use therefo” (OncoImmunin, Inc., priority 1995, dated 1998).

Conditions: literature (Forster and Konig 1957; Arbeloa and Ojeda 1982); cited from earlier work

For `O=C1OC2(c3ccccc31)c1cc(Br)c(O)c(Br)c1Oc1c2cc(Br)c(O)c1Br` [Eosin], the “concentration at which ground-state dimerization of free dye in solution was observed” value is listed as “higher than 2.8×10^-2 M”.
In the case of `CCN(CC)c1ccc2c(-c3ccccc3C(=O)O)c3ccc(=[N+](CC)CC)cc-3oc2c1` [Rhodamine B], the “concentration at which ground-state dimerization of free dye in solution was observed” value is given as “higher than 6×10^-4 M”.
In the case of `O=C1OC2(c3ccc(O)cc3Oc3cc(O)ccc32)c2ccccc21` [fluorescein], the “concentration at which ground-state dimerization of free dye in solution was observed” value is given as greater than 0.74 M.
